In the Kinase Knowledgebase extract (Sharma et al. 2016):

What follows are compounds tested against MAPK14 (human) (UniProt Q16539) (assay: Assessment of MAPK14 Kinase Activity).
Chain of MAPK14 (human) (Q16539 whole entry, looked up): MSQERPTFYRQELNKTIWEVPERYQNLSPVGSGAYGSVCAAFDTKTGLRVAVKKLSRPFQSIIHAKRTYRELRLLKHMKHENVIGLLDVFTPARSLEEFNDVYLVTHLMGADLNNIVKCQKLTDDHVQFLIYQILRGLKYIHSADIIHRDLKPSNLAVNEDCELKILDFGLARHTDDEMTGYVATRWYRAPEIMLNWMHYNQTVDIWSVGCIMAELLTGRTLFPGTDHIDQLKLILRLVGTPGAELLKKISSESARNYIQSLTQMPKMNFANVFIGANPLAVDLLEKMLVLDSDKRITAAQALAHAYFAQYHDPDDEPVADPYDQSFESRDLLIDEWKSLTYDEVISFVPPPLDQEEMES

Compound	IC50 [nM]
C[C@@H](O)CNc1nccc(-c2c(-c3ccc(F)cc3)nc3occn23)n1	37.1
COc1cccc(-c2nc3sccn3c2-c2ccnc(S(C)(=O)=O)n2)c1	10000
CC(C)(C)OC(=O)N1CCC[C@H]1CNc1nccc(-c2c(-c3ccc(F)cc3)nc3sccn23)n1	7.26
O[C@@H](CNc1nccc(-c2c(-c3ccc(F)cc3)nc3occn23)n1)c1ccccc1	8.96
OCCC(CO)Nc1nccc(-c2c(-c3ccc(F)cc3)nc3sccn23)n1 (configuration not stated)	87.1
COc1cccc(-c2nc3sccn3c2-c2nc(SC)ncc2-c2ccccc2)c1	> 10000
C[C@@H](CO)Nc1nccc(-c2c(-c3ccc(F)cc3)nc3occn23)n1	34.8
Fc1ccc(Cl)c(-c2nc3occn3c2-c2ccnc(N[C@@H]3CN4CCC3CC4)n2)c1	6.8
Cc1ccc(-c2nc3sccn3c2-c2ccnc(S(C)(=O)=O)n2)cc1	10000
CS(=O)(=O)c1nccc(-c2c(-c3ccc(F)c(F)c3)nc3sccn23)n1	10000
Fc1ccc(-c2nc3sccn3c2-c2ccnc(N3CCCCC3)n2)cc1	527
CCCCCOc1nccc(-c2c(-c3ccc(F)cc3)nc3sccn23)n1	890
